Ends that are not written are not given here.
How the values were obtained:
Type in all cases: cell-based
[1] = system: Aeromonas salmonicida; settings: 16 h
Description: (§1) The antibacterial activity of peptides β-Pte20, β-Pte17, β-Pte13 and β-Pte10 from pteroicidin B and γ-Pte20, γ-Pte17, γ-Pte13 and γ-Pte10 from pteroicidin C was evaluated on several bacteria as presented in Table 3. All peptides were solubilized in sterilized water. The minimum inhibitory concentrations (MICs) were determined according to the liquid growth inhibition test following the protocol established by Hetru and Bulet and used for the study of α-pteroicidins. Briefly, 10 μL of peptide solution were added to 100 μL of bacterial suspension at a starting OD600 of 0.001 (~10^5 to 10^6 CFU/mL according to strain) and incubated in 96-well microplates. Bacterial growth was assessed by optical density measurement at 595 nm after 16 h of incubation. All the tests were performed three times, and each peptide concentration between 0.1 and 50 µM was tested in triplicate. MICs were expressed in µM as an [a]–[b] concentration interval where [a] was the last concentration with bacterial growth and [b] was the first concentration with 100% bacterial growth inhibition. MBCs (minimal bactericidal concentrations) were expressed in µM as an [a]–[b] concentration interval where [a] was the last concentration with bacterial growth and [b] was the first concentration that killed 100% of the bacteria, determined after the plating on agar plates.

[2] = system: Escherichia coli; settings: 16 h
Description: as §1

[3] = system: Listeria monocytogenes; settings: 16 h
Description: as §1

[4] = system: Salmonella typhimurium; settings: 16 h; for MIC: murium
Description: as §1

[5] = system: Staphylococcus aureus; settings: 16 h
Description: as §1

[6] = system: Vibrio aestuarianus; settings: 16 h
Description: as §1

[7] = system: Vibrio splendidus; settings: 16 h
Description: as §1

[8] = system: Vibrio vulnificus; settings: 16 h
Description: as §1

[9] = system: Enterococcus faecalis; settings: 16 h
Description: as §1

[10] = system: human red blood cells; settings: 200 µM
Description: The hemolytic activity of peptides β-Pte20, β-Pte17, β-Pte13 and β-Pte10 from pteroicidin B and γ-Pte20, γ-Pte17, γ-Pte13 and γ-Pte10 from pteroicidin C was evaluated on human red blood cells (RBCs) following the protocol previously described in [96] and used for α-Pte in a previous study. RBCs were obtained from nine blood samples from French blood donors thanks to the support of the Etablissement Français du Sang (EFS). RBCs were rinsed twice in PBS and then diluted to obtain a 1% erythrocyte solution (~5 × 10^6 cells determined using a Scepter™ 2.0 cell counter). Ninety μL of erythrocyte solution were incubated with 90 μL of peptide solution at concentrations ranging from 5 to 200 μM, for one hour at 37 °C without shaking. The percentage of hemolysis was determined by optical density measurement at 415 nm. The experiment was performed in triplicate. The 0% hemolysis and 100% hemolysis controls were determined in PBS and 1% Triton X-100, respectively.

Sequence | MBC [1] | MIC [1] | MBC [2] | MIC [2] | MBC [3] | MIC [3] | MBC [4] | MIC [4] | MBC [5] | MIC [5] | MBC [6] | MIC [6] | MBC [7] | MIC [7] | MBC [8] | MIC [8] | MIC [9] | hemolysis [10]
FFKRLKNAFKSARQAWR [β-Pte17] | 5 to 10 µM | 5 to 10 µM | 1 to 5 µM | 1 to 5 µM | 25 to 50 µM | 5 to 10 µM | 10 to 25 µM | 10 to 25 µM | 25 to 50 µM | 10 to 25 µM | 10 to 25 µM | 10 to 25 µM | 10 to 25 µM | 10 to 25 µM | 10 to 25 µM | 10 to 25 µM |  | 
FFKRLKNAFKSARQAWRDYK [β-Pte20] | 1 to 5 µM | 1 to 5 µM | 5 to 10 µM | 1 to 5 µM | 5 to 10 µM | 1 to 5 µM | 10 to 25 µM | 10 to 25 µM | 10 to 25 µM | 1 to 5 µM | 5 to 10 µM | 1 to 5 µM | 5 to 10 µM | 1 to 5 µM | 5 to 10 µM | 5 to 10 µM |  | 
FFRHLKSLWK [γ-Pte10] |  | 25 to 50 µM | 25 to 50 µM | 25 to 50 µM |  |  |  |  |  |  |  |  |  |  |  |  |  | 
FFRHLKSLWKGAK [γ-Pte13] |  | 25 to 50 µM | 10 to 25 µM | 10 to 25 µM |  |  |  |  |  |  |  |  |  |  |  |  |  | 
FFRHLKSLWKGAKAAFR [γ-Pte17] | 1 to 5 µM | 1 to 5 µM | 10 to 25 µM | 1 to 5 µM | 5 to 10 µM | 1 to 5 µM | 5 to 10 µM | 5 to 10 µM | 1 to 5 µM | 1 to 5 µM | 5 to 10 µM | 5 to 10 µM | 10 to 25 µM | 10 to 25 µM | 10 to 25 µM | 10 to 25 µM | 1 to 5 µM | 43%
FFRHLKSLWKGAKAAFRGAR [γ-Pte20] | 1 to 5 µM | 1 to 5 µM | 1 to 5 µM | 1 to 5 µM | 5 to 10 µM | 1 to 5 µM | 5 to 10 µM | 5 to 10 µM | 1 to 5 µM | 1 to 5 µM | 10 to 25 µM | 5 to 10 µM | 5 to 10 µM | 5 to 10 µM | 10 to 25 µM | 10 to 25 µM | 1 to 5 µM | 19%

From publication PMC8468504, “Marine Transcriptomics Analysis for the Identification of New Antimicrobial Peptides” (Marine Drugs, 2021)
